{"source": "patent US20260167715A1", "about": "“PD-1+CD38HICD8+ KILLER T CELLS AND USES THEREOF” (GEORGETOWN UNIVERSITY, priority 2022, published 2026)", "molecules": {"B1": {"name": "rCD31: recombinant CD31 protein (3628-PC-050, R&D) (protein)", "chain": "EENSFTINSIHMESLPSWEVMNGQQLTLECLVDISTTSKSRSQHRVLFYKDDAMVYNVTSREHTESYVIPQARVFHSGKYKCTVMLNNKEKTTIEYEVKVHGVSKPKVTLDKKEVTEGGVVTVNCSLQEEKPPIFFKIEKLEVGTKFVKRRIDKTSNENFVLMEFPIEAQDHVLVFRCQAGILSGFKLQESEPIRSEYVTVQESFSTPKFEIKPPGMIIEGDQLHIRCIVQVTHLVQEFTEIIIQKDKAIVATSKQSSEAVYSVMAMVEYSGHYTCKVESNRISKASSIMVNITELFPKPKLEFSSSRLDQGELLDLSCSVSGTPVANFTIQKEETVLSQYQNFSKIAEESDSGEYSCTAGIGKVVKRSGLVPIQVCEMLSKPSIFHDAKSEIIKGHAIGISCQSENGTAPITYHLMKAKSDFQTLEVTSNDPATFTDKPTRDMEYQCRADNCHSHPAVFSEILRVRVIAPVDEVVISILSSNEVQSGSEMVLRCSVKEGTSPITFQFYKEKEDRPFHQAVVNDTQAFWHNKQASKKQEGQYYCTASNRASSMRTSPRSSTLAVRVFLAPWKK"}}, "key": {"T^frat cells [1]": {"system": "T^frat cells", "test": "Degranulation (CD107a) in T^frat cells cultured with rCD31 with or without PI3K or ERK1/2 inhibitors", "format": "cell-based, mouse", "settings": "rCD31 with inhibitor (100 nM), 24 h"}, "T^frat cells [2]": {"system": "T^frat cells", "test": "Gzm B levels in T^frat cells after NAD repletion or SIRT1 activator", "format": "cell-based, mouse", "settings": "NAD (1 mM) or SIRT1 activator (1 or 2 μM), 24 h", "experimental": "(§1) PD1^+CD38^hi and Teff CD8 T cells were generated by our previously reported method^2. In brief, MACS purified (>90%) OT1-CD8 (CD45.1) T cells from mouse spleen were activated either with low-affinity OVA-V peptide or with high-affinity OVA peptide ([…]) in T cell medium supplemented with 30 international units (IU) of IL-2 for 48 hours followed by FACS purification of PD1^+CD38^hi and PD1^+CD38^lo T cells respectively. Various cell surface and intracellular markers as well as level of pro- and anti-inflammatory cytokines, and cytolytic molecules were analyzed by flow cytometry as explained in the next section. In some experiments, CD38 was KD using siRNA for 24 h prior to various marker analysis. Furthermore, in a few experiments, either NAD (1 mM) or SIRT1 activator (1 or 2 μM) were added to the Tfrat cells for 24 h and levels of Gzm B were measured in these cells and in Teff cells by flow cytometry. To determine the role of CD38:CD31 interaction and signaling in Gzm B degranulation, Tfrat cells were cultured with rCD31 (1 or 5 μg) with or without PI3K or ERK1/2 inhibitors (100 nM). After 24 h, degranulation of Gzm B in T^frat cells was measured by CD1071 staining and levels of various signaling molecules by flow cytometry."}, "[3]": {"system": "target pMel-1 CD8 T cells", "test": "Co-culture (in vitro cell killing) of PD1+CD38hi or Teff CD8 T cells with target pMel-1 CD8 T cells; annexin V, caspase3/7, live/dead staining", "format": "cell-based", "settings": "co-incubation of T^frat and target cells with blocking antibody or inhibitor", "source_text": "For the flow cytometry analysis of lymphocytes of mouse and human origin, 1-2×10^6 cells per sample were stained with the LIVE/DEAD fixable near-IR dead cell stain kit (Invitrogen; catalog no. L10119) followed by fixation and permeabilization. All surface and intracellular markers were stained at the same time in fix and per buffer as per manufacturer's recommendations. For IFN-7 and Gzm B staining, the BD Biosciences Cytofix/Cytoperm (catalog no. 51-2090KZ) and BD Biosciences Perm/Wash (catalog no. 51-2091KZ) buffer sets were used according to the manufacturer's instructions. In a few experiments, variously treated cells were processed for annexin V staining to check the extent of apoptosis. For this, collected cells were stained for annexin V in annexin binding buffer (ABB) (BD Biosciences) for 30 minutes at 4° C. […]\nPD1^+CD38^hi and Teff CD8 T cells were co-cultured overnight with FACS-sorted Thy1.1 target pMel-1 CD8^+ T cells (killer to target cell ratio 1:1) that were activated with gp100 peptide (1 μM per 10^6 cells per mL). […] In addition to the annexin V staining, Gzm B levels in the pMel-1 target CD8 or CD4 T cells and […] levels in the Tfrat cells after their co-culture in the presence or absence of anti-CD38/CD31 were measured by flow cytometry. […] Viability of target cells was assessed by FACS analysis using fixable Live/Dead stain."}, "[4]": {"system": "Zap70, PI3K, RAC, and ERK in T^frat cells", "test": "Signaling molecules in T^frat cells incubated with rCD31 (Western blotting)", "format": "cell-based, mouse", "settings": "incubation with rCD31 (1 or 5 μg)", "experimental": "as §1, with “After 24 h, degranulation of Gzm B in T^frat cells was measured by CD1071 staining and levels of various signaling molecules by flow cytometry.” left out"}}, "note": "Residues, ends and D or L forms follow the SMILES beside them. *: point of attachment. Cbz = O=C(OCc1ccccc1)*; CH2Cl = ClC*", "data": [{"molecule": "O=C(Nc1ccc2[nH]nc(-c3ccncc3)c2c1)[C@@H]1CCN(CC(=O)N2CCN(c3ccc(-c4ncccn4)cc3)CC2)C1", "note": "[ERK inhibitor, SCH772984]", "values": [{"measurement": "degranulation of Gzm B resulting from CD38:CD31 engagement, measured by CD107a level", "setting": "T^frat cells [1]", "result": "inhibited"}]}, {"molecule": "NC(=O)c1ccc[n+]([C@@H]2O[C@H](COP(=O)([O-])OP(=O)(O)OC[C@H]3O[C@@H](n4cnc5c(N)ncnc54)[C@H](O)[C@@H]3O)[C@@H](O)[C@H]2O)c1", "note": "[NAD]", "values": [{"measurement": "expression of Gzm B in T^frat", "setting": "T^frat cells [2]", "result": "decrease in the expression of Gzm B"}]}, {"molecule": "Cl.O=C(Nc1ccccc1-c1cn2c(CN3CCNCC3)csc2n1)c1cnc2ccccc2n1", "note": "[SRT1720 HCl]", "values": [{"measurement": "expression of Gzm B in T^frat", "setting": "T^frat cells [2]", "result": "decrease in the expression of Gzm B"}]}, {"molecule": "C[C@H](NC(=O)OCc1ccccc1)C(=O)N[C@@H](C)C(=O)N[C@@H](CC(=O)O)C(=O)CCl", "note": "[Z-AAD-CMK] (Cbz-Ala-Ala-Asp-CH2Cl)", "values": [{"measurement": "T^frat-mediated apoptosis in target pMel-1 CD8 T cells in presence of the agent (annexin V)", "setting": "[3]", "result": "fully abrogated"}]}, {"molecule": "B1", "values": [{"measurement": "expression of phosphorylated Zap70, PI3K, RAC, and ERK in T^frat cells", "setting": "[4]", "result": "increase in the expression of phosphorylated Zap70, PI3K, RAC, and ERK"}]}]}
